Experimental data from PMC11310081, “Deep-learning-enabled antibiotic discovery through molecular de-extinction” (Nature Biomedical Engineering, 2024).
≈ marks a conversion by molar mass, not a printed value. Peptide text beside a SMILES is read from it.

Legend:
[1] = system: 11 clinically relevant bacterial pathogens; assay type: cell-based; conditions: Supplementary Dataset 2; against the 11 pathogens tested
How it was run: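 Broth microdilution with peptides at 1 to 64 μmol l^−1. Inocula came from overnight LB cultures diluted 1:100 and grown at 37 °C to log phase (OD600 = 0.3–0.5); growth read by OD600, three biological replicates.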

HEK293T cells = conditions: 24 h
How it was run: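 5,000 cells/well seeded a day ahead in DMEM with 10% FBS, then treated with peptides; viability by MTT (0.5 mg/ml, 4 h, 37 °C), formazan in acidic isopropanol read at 570 nm. Concentration causing 50% lysis from non-linear regression; three biological replicates, two technical each.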

[2] = system: E. faecalis ATCC 700802 (vancomycin-resistant strain); assay type: cell-based, Enterococcus faecalis; conditions: ATCC 700802, 20 h
From the text: The following Gram-negative bacteria were used in our study: A. baumannii ATCC 19606, E. coli ATCC 11775, E. coli AIC221 (E. coli MG1655 phnE_2::FRT), E. coli AIC222 (E. coli MG1655 pmrA53 phnE_2::FRT (colistin resistant)), K. pneumoniae ATCC 13883, P. aeruginosa PAO1 and P. aeruginosa PA14. The following Gram-positive bacteria were also used in our study: S. aureus ATCC 12600, S. aureus ATCC BAA-1556 (methicillin-resistant strain), E. faecalis ATCC 700802 (vancomycin-resistant strain) and E. faecium ATCC 700221 (vancomycin-resistant strain). Bacteria were grown from frozen stocks and plated on Luria–Bertani (LB) or Pseudomonas isolation agar plates (P. aeruginosa strains) and incubated overnight at 37 °C. After the incubation period, a single colony was transferred to 5 ml of LB medium, and cultures were incubated overnight (16 h) at 37 °C. The following day, an inoculum was prepared by diluting the overnight cultures 1:100 in 5 ml of the respective media and incubating them at 37 °C until bacteria reached logarithmic phase (OD600 = 0.3–0.5).
The in vitro antimicrobial activity of the peptides was assessed by using the broth microdilution assay. […] Aqueous solutions of the peptides were added to the plate at concentrations ranging from 1 to 64 μmol l^−1. […] The optical density of the plates was measured at 600 nm using a spectrophotometer. […]

For `CC[C@H](C)[C@H](NC(=O)[C@H](CCCCN)NC(=O)[C@H](CC(C)C)NC(=O)[C@H](CCC(N)=O)NC(=O)[C@H](Cc1ccccc1)NC(=O)[C@@H](NC(=O)[C@@H](NC(=O)[C@H](Cc1ccccc1)NC(=O)[C@H](CC(C)C)NC(=O)[C@@H](NC(=O)[C@@H](N)CC(C)C)[C@@H](C)O)[C@@H](C)CC)[C@@H](C)CC)C(=O)N[C@@H](CO)C(=O)N[C@@H](CCCCN)C(=O)N[C@@H](CC(C)C)C(=O)O` [Paleopropin-1] (H-LTLFIIFQLKISKL-OH; N-terminus and C-terminus assumed), which “Active or Inactive” value [1] is on record?
Its value is “Active”.

And the CC50 (HEK293T cells)?
The CC50 was over 128 µmol/L.

And the “TI (therapeutic index)” value (HEK293T cells)?
Its value is over 4.

And the “Minimal inhibitory concentration, E. faecalis ATCC700802-VRE” value [2]?
Its value is 16 µmol/L (≈ 26.8 µg/mL).
